Tested on: Plasmodium berghei
Experiment: Antimalarial activity against Plasmodium berghei infected mouse assessed as suppression of parasitemia administered through diet for 6 days
Format: functional

| SMILES | log(1/SD90) |
| --- | --- |
| CN(C)c1nc(N)c2cc(NCc3ccccc3)ccc2n1 | 3.75 |
| CCN(Cc1cccc2ccccc12)c1ccc2nc(N)nc(N)c2c1 | 5.97 |
| Nc1nc(N)c2cc(NCc3ccc4ccccc4c3Cl)ccc2n1 | 4.59 |
| CC(Nc1ccc2nc(N)nc(N)c2c1)c1ccc(Cl)c(Cl)c1 (stereo unspecified) | 4.6 |
| CCCCNc1nc(NCCCC)c2cc(NCc3ccc(Cl)c(Cl)c3)ccc2n1 | 3.47 |
| CCN(Cc1ccc(Cl)c(Cl)c1)c1ccc2nc(N)nc(N)c2c1 | 6 |
| CCCN(Cc1ccc(Cl)cc1)c1ccc2nc(N)nc(N)c2c1 | 6.3 |
| CCN(Cc1ccc(Cl)cc1)c1ccc2nc(N)nc(N)c2c1 | 6.4 |
| Cc1c(NCc2ccccc2)ccc2nc(N)nc(N)c12 | 5.33 |
| Nc1nc(N)c2c(Cl)c(NCc3ccc(Cl)c(Cl)c3)ccc2n1 | 5.72 |
| Nc1nc(N)c2cc(N(Cc3ccc(Cl)c(Cl)c3)N=O)cnc2n1 | 4.48 |
| CCN(Cc1ccc(Cl)c(Cl)c1)c1ccc2nc(N)nc(N)c2c1C | 5.2 |
| CN(Cc1ccccc1)c1ccc2nc(N)nc(N)c2c1 | 6.15 |
| Nc1nc(N)c2cc(NCc3ccc(Cl)s3)ccc2n1 | 4.49 |
| CN(Cc1ccc(Cl)c(Cl)c1)c1ccc2nc(N)nc(N)c2c1 | 6.34 |
| CCCN(Cc1ccc(Cl)c(Cl)c1)c1ccc2nc(N)nc(N)c2c1 | 6.1 |
| CCN(CC)c1nc(N(CC)CC)c2cc(NCc3ccc(Cl)c(Cl)c3)ccc2n1 | 3.31 |
| Nc1nc(N)c2cc(NCCc3ccc(Cl)cc3)ccc2n1 | 4.24 |
| CCCCN(Cc1ccc(Cl)c(Cl)c1)c1ccc2nc(N)nc(N)c2c1 | 5.06 |
| CCCN(Cc1ccc(Cl)c(Cl)c1)c1ccc2nc(N)nc(N)c2c1C | 5.36 |
| CN(C)c1nc(N(C)C)c2cc(NCc3ccc(Cl)c(Cl)c3)ccc2n1 | 4.21 |
| CC(c1ccc(Cl)c(Cl)c1)N(C)c1ccc2nc(N)nc(N)c2c1 (stereo unspecified) | 5.6 |
| Nc1nc(N)c2cc(NCc3cccc(Br)c3)ccc2n1 | 5.93 |
| Nc1nc(N)c2cc(NCc3cccs3)ccc2n1 | 3.82 |
| COc1cccc(CNc2ccc3nc(N)nc(N)c3c2)c1 | 4.15 |
| Nc1nc(N)c2cc(NCc3ccccc3N)ccc2n1 | 3.07 |
| Nc1nc(N)c2cc(NCc3ccccc3[N+](=O)[O-])ccc2n1 | 3.26 |
| Cc1c(NCc2ccc(Cl)c(Cl)c2)ccc2nc(N)nc(N)c12 | 4.83 |
| CC(C)N(Cc1ccc(Cl)cc1)c1ccc2nc(N)nc(N)c2c1 | 6.76 |
| CCCCCCCCN(Cc1ccc(Cl)cc1)c1ccc2nc(N)nc(N)c2c1 | 4.08 |

Tested on: Plasmodium berghei
Experiment: Antimalarial activity against Plasmodium berghei infected in po dosed mouse assessed as suppression of parasitemia administered for 6 days
Format: functional

| SMILES | log(1/SD90) |
| --- | --- |
| Nc1nc(N)c2cc(Oc3ccc4cc(Br)ccc4c3)ccc2n1 | 4.09 |
| Nc1nc(N)c2cc(Oc3ccc4cc(Br)ccc4c3Br)ccc2n1 | 4.05 |
| Nc1nc(N)c2cc(Oc3ccccc3)ccc2n1 | 4.43 |
| Nc1nc(N)c2cc(Oc3cc(Cl)cc(Cl)c3)ccc2n1 | 4.11 |
| Nc1nc(N)c2cc(NCc3ccc(Cl)c(Cl)c3)ccc2n1 | 4.59 |
| Nc1nc(N)c2cc(Oc3cc(C(F)(F)F)cc(C(F)(F)F)c3)ccc2n1 | 4.44 |
| Nc1nc(N)c2cc(OCc3ccc(Cl)cc3)ccc2n1 | 4.06 |
| Nc1nc(N)c2cc(OCc3ccccc3)ccc2n1 | 3.18 |

Tested on: Plasmodium berghei
Experiment: Antimalarial activity against Plasmodium berghei infected in po dosed mouse assessed as suppression of parasitemia
Format: functional

| SMILES | log(1/SD90) |
| --- | --- |
| Cc1c(N(C=O)Cc2ccc(Cl)c(Cl)c2)ccc2nc(N)nc(N)c12 | 5.69 |
| Nc1nc(N)c2c(n1)CCN(Cc1cccnc1)C2 | 3.88 |
| Nc1nc(N)c2cc(CNc3ccc(Cl)cc3)ccc2n1 | 5.2 |
| Cc1c(CNc2ccc(Cl)cc2)ccc2nc(N)nc(N)c12 | 6.55 |
| Nc1nc(N)c2cc(N(C=O)Cc3ccc(Cl)c(Cl)c3)ccc2n1 | 5.24 |
| Nc1nc(N)c2c(n1)CCN(Cc1ccncc1)C2 | 3.31 |
| Cc1c(CNc2ccc(Cl)c(Cl)c2)ccc2nc(N)nc(N)c12 | 6.02 |
| Nc1nc(N)c2cc(-n3cccc3)ccc2n1 | 4.29 |
| Nc1nc(N)c2c(n1)CCN(Cc1ccc(Cl)cc1Cl)C2 | 4.4 |
| Nc1nc(N)c2cc(CNc3ccc(Cl)c(Cl)c3)ccc2n1 | 5.56 |
| Nc1nc(N)c2cc(CN(N=O)c3ccc(Cl)c(Cl)c3)ccc2n1 | 6.16 |
| Cc1c(N(Cc2ccc(Cl)c(Cl)c2)N=O)ccc2nc(N)nc(N)c12 | 5.15 |
| Nc1nc(N)c2c(n1)CCN(Cc1c(Cl)cccc1Cl)C2 | 4.36 |
| Nc1nc(N)c2c(n1)CCN(Cc1ccccc1Cl)C2 | 3.73 |
| Nc1nc(N)c2c(n1)CCN(Cc1ccc(Cl)cc1)C2 | 4.14 |
| Cc1c(CN(N=O)c2ccc(Cl)c(Cl)c2)ccc2nc(N)nc(N)c12 | 5.52 |
| Nc1nc(N)c2c(n1)CCN(Cc1ccccc1)C2 | 3.65 |
| Nc1nc(N)c2c(n1)CCN(Cc1ccc(Cl)c(Cl)c1)C2 | 4.92 |

Molecular target: T1, Dihydrofolate reductase (Enterococcus faecium) (UniProt P00380)
T1 sequence (whole entry): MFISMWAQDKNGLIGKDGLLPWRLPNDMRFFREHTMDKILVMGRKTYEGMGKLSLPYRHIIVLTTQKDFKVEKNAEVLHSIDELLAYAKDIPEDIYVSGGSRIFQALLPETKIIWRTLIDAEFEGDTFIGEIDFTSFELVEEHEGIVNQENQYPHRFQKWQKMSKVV
Description: Inhibition of Streptococcus faecium dihydrofolate reductase using dihydrofolate as substrate

| SMILES | log(1/I50) |
| --- | --- |
| Nc1nc(N)c2cc(Sc3ccc(Cl)c(Cl)c3)ccc2n1 | 8.24 |
| Nc1nc(N)c2cc(CNc3ccc(C(=O)O)cc3)ccc2n1 | 8.8 |
| Nc1nc(N)c2c(CSc3ccc4ccccc4c3)cccc2n1 | 7.55 |
| Sc1nc(S)c2cc(Sc3ccc4ccccc4c3)ccc2n1 | 3.65 |
| Nc1nc(S)c2cc(S(=O)(=O)c3ccc4ccccc4c3)ccc2n1 | 5.17 |
| CCOC(=O)c1ccc(CNc2ccc3nc(N)nc(O)c3c2Cl)cc1 | 6.09 |
| Nc1nc(O)c2cc(S(=O)(=O)c3ccc(Cl)c(Cl)c3)ccc2n1 | 5.3 |
| Nc1nc(N)c2c(/C=C/c3ccc4ccccc4c3)cccc2n1 | 7.12 |
| CCOC(=O)c1ccc(NCc2ccc3nc(N)nc(N)c3c2)cc1 | 7.68 |
| O=c1[nH]c(=O)c2cc(Sc3ccc4ccccc4c3)ccc2[nH]1 | 4.32 |
| Nc1nc(N)c2c(/C=C\c3ccc4ccccc4c3)cccc2n1 | 7.43 |
| Nc1nc(N)c2c([S+]([O-])c3ccc(Cl)c(Cl)c3)cccc2n1 (stereo unspecified) | 4.65 |
| CCOC(=O)c1ccc(CNc2ccc3nc(N)nc(O)c3c2)cc1 | 4.55 |
| Nc1nc(O)c2cc(CNc3ccc(C(=O)O)cc3)ccc2n1 | 5.74 |
| Nc1ncnc2ccc([S+]([O-])c3ccc4ccccc4c3)cc12 (stereo unspecified) | 4.58 |
| CCOC(=O)c1ccc(CNc2ccc3nc(N)nc(N)c3c2)cc1 | 7.34 |
| Oc1nc(S)nc2ccc(Sc3ccc4ccccc4c3)cc12 | 3.85 |
| Cc1c(CNc2ccc(C(=O)O)cc2)ccc2nc(N)nc(N)c12 | 7.96 |
| CCOC(=O)c1ccc(CNc2ccc3nc(N)nc(N)c3c2C)cc1 | 8.85 |
| CCOC(=O)c1ccc(CNc2ccc3nc(N)nc(N)c3c2Cl)cc1 | 8.2 |
| Nc1nc(N)c2cc(S(=O)(=O)c3ccc(Cl)c(Cl)c3)ccc2n1 | 9.15 |
| Nc1nc(N)c2cc([S+]([O-])c3ccc4ccccc4c3)ccc2n1 (stereo unspecified) | 8.7 |
| Nc1nc(N)c2c(S(=O)(=O)c3ccc4ccccc4c3)cccc2n1 | 4.05 |
| CCOC(=O)c1ccc(NCc2ccc3nc(N)nc(N)c3c2C)cc1 | 8.29 |
| Nc1nc(N)c2c(Sc3ccc4ccccc4c3)cccc2n1 | 7.25 |
| Nc1nc(N)c2c(Sc3ccc(Cl)c(Cl)c3)cccc2n1 | 6.54 |
| Nc1nc(O)c2c(Sc3ccc4ccccc4c3)cccc2n1 | 4.68 |
| Cc1c(CNc2ccc(C(=O)NC(CC(=O)O)C(=O)O)cc2)ccc2nc(N)nc(N)c12 (stereo unspecified) | 8.6 |

| SMILES | log(1/I50) |
| --- | --- |
| Nc1nc(O)c2cc(Sc3ccc4ccccc4c3)ccc2n1 | 6.74 |
| Nc1ncnc2ccc(Sc3ccc4ccccc4c3)cc12 | 4.07 |
| Nc1nc(N)c2c(Cl)c(CNc3ccc(C(=O)O)cc3)ccc2n1 | 8.27 |
| Nc1nc(S)c2cc(Sc3ccc4ccccc4c3)ccc2n1 | 6.1 |
| Nc1ncnc2ccc(S(=O)(=O)c3ccc4ccccc4c3)cc12 | 3.51 |
| Nc1nc(S)nc2ccc(Sc3ccc4ccccc4c3)cc12 | 4.69 |
| CCCCOC(=O)c1ccc(NCc2ccc3nc(N)nc(N)c3c2)cc1 | 7.52 |
| Nc1nc(N)c2cc(S(=O)(=O)c3ccc4ccccc4c3)ccc2n1 | 8.4 |
| CCOC(=O)c1ccc(NCc2ccc3nc(N)nc(N)c3c2Cl)cc1 | 8.64 |
| Nc1nc(O)c2cc([S+]([O-])c3ccc4ccccc4c3)ccc2n1 (stereo unspecified) | 5.28 |
| Nc1nc(O)c2cc(Sc3ccc(Cl)c(Cl)c3)ccc2n1 | 5.92 |
| CCOC(=O)c1ccc(CNc2ccc3nc(N)nc(O)c3c2C)cc1 | 4.52 |
| CCOC(=O)CCC(NC(=O)c1ccc(NCc2ccc3nc(N)nc(N)c3c2)cc1)C(=O)OCC (stereo unspecified) | 7.7 |
| O=c1[nH]c(=S)c2cc(Sc3ccc4ccccc4c3)ccc2[nH]1 | 4.24 |
| Nc1nc(N)c2cc(CN(C=O)c3ccc(C(=O)NC(CCC(=O)O)C(=O)O)cc3)ccc2n1 (stereo unspecified) | 9 |
| Nc1nc(O)c2cc(CN(C=O)c3ccc(C(=O)NC(CCC(=O)O)C(=O)O)cc3)ccc2n1 (stereo unspecified) | 6.52 |
| CCCCOC(=O)c1ccc(NCc2ccc3nc(N)nc(N)c3c2C)cc1 | 8.15 |
| CCOC(=O)c1ccc(NCc2ccc3nc(N)nc(O)c3c2)cc1 | 7.07 |
| Nc1nc(N)c2c([S+]([O-])c3ccc4ccccc4c3)cccc2n1 (stereo unspecified) | 4.36 |
| Nc1nc(N)c2cc(Sc3cccc(C(F)(F)F)c3)ccc2n1 | 9.15 |
| Nc1nc(O)nc2ccc(Sc3ccc4ccccc4c3)cc12 | 4.34 |
| Nc1nc(O)c2cc(S(=O)(=O)c3ccc4ccccc4c3)ccc2n1 | 6.3 |
| Nc1nc(N)c2c(S(=O)(=O)c3ccc(Cl)c(Cl)c3)cccc2n1 | 5.85 |
| Nc1nc(N)c2c(CSc3ccc(Cl)cc3)cccc2n1 | 7.24 |
| CCCCOC(=O)c1ccc(NCc2ccc3nc(N)nc(N)c3c2Cl)cc1 | 7.68 |
| Nc1nc(O)c2c(S(=O)(=O)c3ccc4ccccc4c3)cccc2n1 | 5.85 |
| Nc1nc(N)c2c(CCc3ccc4ccccc4c3)cccc2n1 | 8 |

From ChEMBL document CHEMBL3272349, “Quantitative structure-activity relationships of antimalarial and dihydrofolate reductase inhibition by quinazolines and 5-substituted benzyl-2,4-diaminopyrimidines” (J Med Chem, 1977)
